Reference: US20230227546A1, “TYPE 2 CYTOKINES AS PREDICTORS OF DISEASE SEVERITY AND/OR AS T[…] FOR COVID-19” (priority 2020, published 2023)

Test system: COVID-19
Format: in vivo, human

## Dupilumab: anti-human IL4Rα monoclonal antibody that blocks IL-13 and IL-4 signaling; sold as DUPIXENT
31 patients
  Deceased (number of patients) With Concurrent Dupilumab: 0
  Ventilated (number of patients) With Concurrent Dupilumab: 0
31 patients, values less than 20 suppressed
  Hospitalized (number of patients) With Concurrent Dupilumab: <20
Dupilumab vs matched controls 1:5, conditional logistic regression
  Odds Ratio, Hospitalized: 0.64
Compared to matched controls
  rate of death: lower rate
  rate of hospitalization: lower rate
  rate of ventilation: lower rate
